Patent US12053465B2, “KCC2 expression enhancing compounds and uses thereof” (Whitehead Institute for Biomedical Research, priority 2017, dated 2024)

How the values were obtained:
Format in all cases: cell-based
[1] = tested on: KCC2 expression; test: Western blot of KCC2 in cultured human RTT neurons; conditions: cultured human RTT neurons; Western blot
Protocol: Protein samples were collected from cultured brain slices or cultured neurons in 12-well format with RIPA lysis buffer (in mM: 150 NaCl, 25 Tris-HCl, 1 EDTA, 1% NP-40, 1% sodium deoxycholate, 0.1% SDS, with protein kinase inhibitor and protease inhibitor, pH adjusted to 7.6). A sonication step was applied to homogenize tissue and extract protein, followed by a 10 minute centrifugation at 4° C. […] The PVDF membrane was blocked for 30 minutes with 5% milk in TBS+0.1% Tween 20 (TBST), and incubated overnight at 4° C. with primary antibodies diluted in TBST-milk at the following concentrations: KCC2 (1:2000, Millipore), NKCC1 (1:1000, Iowa Hybridoma bank), α-Tubulin (1:4000, Abcam), GAPDH (1:3000, Abcam), Actin (1:2000, Sigma Aldrich #A2066). The membrane was rinsed with TBST three times to wash off excess antibodies, and then incubated in secondary HRP antibodies in TBST-milk at 1:5000 concentration.
The PVDF membrane was then stripped using the Re-blot plus strong solution (Millipore), and re-immunoblotted for NKCC1 (˜150 kDa) to acquire KCC2/NKCC1 ratio. The area and intensity of protein signal was determined using ImageJ. The relative KCC2 and NKCC1 expression were calculated by normalizing protein signal to GAPDH or Tubulin loading control.

[2] = tested on: KCC2 expression; test: Western blot of KCC2 in cultured WT human neurons; conditions: cultured WT human neurons (WIBR1); Western blot
[3] = tested on: KCC2 expression; test: Western blot of KCC2 in organotypic mouse brain slices; conditions: organotypic neonatal mouse brain slices, treated 7 days, vs DMSO, MeBIO or medium-only control
[4] = tested on: KCC2 mRNA; test: Quantitative RT-PCR of KCC2 mRNA in organotypic mouse brain slices
Protocol: (§1) Brain slices were also treated with the FLT3 inhibitors Crenolanib and XL-184. […] To assess whether increased KCC2 protein levels were due to increased gene transcription or enhanced protein stability, quantitative RT-PCR experiments were performed to measure the KCC2 mRNA level in KEEC-treated brain slices. […] In contrast, the expression of NKCC1, a chloride transporter that antagonizes KCC2 activity by shuttling Cl^− into the cell (44), was decreased by treatment with KEEC compounds (FIG. 8F).
(§2) Brain slice cultures were prepared from P1 neonatal mouse according to a protocol described by Antonio del Rio et al., Nature Protocols, 2010. Cerebrum slices (1 mm in thickness) were prepared from neonatal mouse brain, and were transferred to 6-well culture inserts with the pore size of 0.4 μm. The insert was placed in 6-well plates with 1 ml of culture medium. Three days after the initial culture, compounds and DMSO control were added to the medium. Alternately, in some experiments, brain slice cultures were prepared from P3 neonatal mouse according to a protocol described by Antonio del Rio et al., Nature Protocols, 2010. Cerebrum slices (1 mm in thickness) were prepared from neonatal mouse brain, and were transferred to 6-well culture inserts with the pore size of 0.4 μm. The insert was placed in 6-well plates with 1 ml of culture medium. The day after the initial culture, compounds and DMSO control were added to the medium. The medium with fresh compounds was used to replace old medium every other day. One week after drug treatment, the brain slices were harvested for Western blot or qRT-PCR analysis.
(§3) To prepare RNA samples from cultured organotypic brain slice, tissue samples were homogenized by passing through a 23 gauge needle for a number of times. Total RNA was extracted with Omega Total RNA kit and was reverse-transcribed into cDNA using the Invitrogen Superscript RT system and Oligo dT primer. SYBR green-based quantitative RT-PCR assay was performed to detect for the abundance of specific mRNA transcripts. The primer sequence for the detection of KCC2 expression in mouse brain samples are as follows: KCC2-Forward: […] (SEQ ID NO: 2); KCC2-Reverse: […] (SEQ ID NO: 3). The primer sequence for detection of NKCC1 mRNA are as follows: NKCC1-Forward: […] (SEQ ID NO: 3); NKCC1-Reverse: […] (SEQ ID NO: 4). The gene expression was calculated by normalizing the KCC2 data with the expression of housekeeping gene HDAC2 in every sample. HDAC2 expression was detected using the following primers: HDAC2-Forward: […] (SEQ ID NO: 5); HDAC2-Reverse: […] (SEQ ID NO: 6). Relative gene expression levels were calculated by normalizing KCC2 or NKCC1 expression in drug-treated groups with that in DMSO controls with the housekeeping gene HDAC being used as internal control.

[5] = tested on: NKCC1 mRNA; test: Quantitative RT-PCR of NKCC1 mRNA in organotypic mouse brain slices
Protocol: as §1, §2, §3

[6] = tested on: human RTT neurons; test: mEPSC whole-cell patch-clamp recording in cultured human RTT neurons; conditions: cultured human RTT neurons
Excerpt: (§4) Moreover, a reduction in the number or the strength of excitatory glutamatergic synapses in RTT neurons has been observed in postmortem RTT patient brain samples (30), mouse models of RTT (53), and human stem cell-derived RTT neurons (54). Electrophysiology recording was utilized to assess whether KEECs could rescue the deficits in EGABA and excitatory synaptic transmission of RTT neurons. […] We further investigated whether the beneficial effect of KEECs is a direct result of the increases in neuronal KCC2 gene expression. […] Deficits in a number of morphological measurements, including nuclei size and neurite complexity and branching, are hallmarks of RTT neurons (54-56). […] To validate the morphological measurements, electrophysiological measurements of the neuronal membrane capacitance (Cm), an indicator of neuronal cell size (57) that is reduced in RTT neurons, were conducted.
(§5) Functionally mature human neuron cultures were obtained by seeding human WT or isogenic RTT NPCs on a layer of primary mouse astrocyte culture as previously described (57). In the cultured WT human neurons, KCC2 expression reaches mature level between 2-3 months (7). We therefore treated the WT or RTT human neurons 8-12 weeks in culture, with compounds for a duration of two weeks before conducting whole-cell patch-clamp recording. The extracellular bath solution, that perfused the recording chamber, consists of (in mM): 120 NaCl, 30 glucose, 25 HEPES, 5 KCl, 2 CaCl2, 1 MgCl2. The pH was adjusted to 7.3 with NaOH. The high-chloride internal pipette solution consists of (in mM): 147 KCl, 5 Na-phosphocreatine, 2 EGTA, 10 HEPES, 4 MgATP, and 0.5 Na2GTP; the pH 7.3 was adjusted with KOH. To record mini EPSC, the membrane potential was held at −70 mV, and 0.5 μM of TTX and 50 μM Picrotoxin were applied with bath solution to block action potential and GABAergic synaptic transmission.
To evoke GABA response, a pipette filled with 100 μM GABA solution was positioned 5-10 μm away from the neuronal cell body. Air pulses at the pressure of 10 p.s.i. and duration of 100 ms were generated with a Picrospritzer (Parker Instrumentation) to puff GABA solution onto neuronal cell body. Neuronal response to GABA puffs were recorded at different membrane holding potentials from −90 mV to +30 mV, and the EGABA values were calculated with linear regression. Electrophysiological signals were recorded with Multiclamp 700A patch-clamp amplifier and data were collected with Clamp 9 software (Molecular Devices, Palo Alto, CA), sampled at 10 kHz and filtered at 1 KHz. Off-line data analyses of mEPSC synaptic events were performed with MiniAnalysis software (Synaptosoft, Decator, GA). All experiments were performed at room temperature. A sample size of 5-8 neurons was used for EGABA measurements, while a sample size of 14-19 neurons was used for mEPSC measurements. All data were presented as mean±SEM. ANOVA test followed by the Bonferroni correction were used for statistical analysis. The Kolmogorov-Smirnov test was employed to compare the cumulative distribution between two datasets.

[7] = tested on: human RTT neurons; test: Membrane capacitance (Cm) of cultured human RTT neurons; conditions: cultured human RTT neurons; vs DMSO or MeBIO control
Excerpt: as §4, §5

SMILES | KCC2 expression [1] | KCC2 expression [2] | KCC2 protein level [3] | KCC2 mRNA level [4] | NKCC1 mRNA level [5] | frequency of mEPSCs [6] | membrane capacitance (Cm) [7]
CC1(COc2ccc3c(c2)ncn3-c2ccc3cccc(N4CCC(N)CC4)c3n2)COC1 [Crenolanib, 1-(2-{5-[(3-Methyloxetan-3-yl)methoxy]-1H-benzimidazol-1-yl}quinolin-8-yl)piperidin-4-amine] | significant enhancement of KCC2 expression | significant enhancement of KCC2 expression | significantly increased the KCC2 protein level | significantly increased KCC2 expression | significant reduction in NKCC1 mRNA level |  | 
O=C1Nc2ccccc2/C1=C1/Nc2ccccc2/C1=N\O [Indirubin-monoxime, (2Z,3E)-3-(hydroxyimino)-[2,3′-biindolinylidene]-2′-one] | increased KCC2 expression levels significantly |  |  | significantly increased KCC2 expression | significant reduction in NKCC1 mRNA level |  | 
CN1C(=O)/C(=C2\Nc3ccccc3\C2=N/O)c2ccc(Br)cc21 [MeBIO] |  | failed to activate KCC2 expression | does not alter KCC2 expression |  |  | failed to rescue synaptic deficits in RTT neurons | failed to change Cm
CCN(CC)CCNC(=O)c1c(C)[nH]c(/C=C2\C(=O)Nc3ccc(F)cc32)c1C [Sunitinib, N-(2-diethylaminoethyl)-5-[(Z)-(5-fluoro-2-oxo-1H-indol-3-ylidene)methyl]-2,4-dimethyl-1H-pyrrole-3-carboxamide] |  | significant enhancement of KCC2 expression |  | significantly increased KCC2 expression | significant reduction in NKCC1 mRNA level |  | 
